# Measured values from patent publication US20240307409A1, “ARGININE METHYLTRANSFERASE INHIBITOR AND USE THEREOF” (Cytosinlab Therapeutics Co., Ltd., priority 2021, published 2024).
# Biological target: T1, PRMT7 (Homo sapiens, UniProt Q9NVM4)
# T1 sequence (Q9NVM4 1-692): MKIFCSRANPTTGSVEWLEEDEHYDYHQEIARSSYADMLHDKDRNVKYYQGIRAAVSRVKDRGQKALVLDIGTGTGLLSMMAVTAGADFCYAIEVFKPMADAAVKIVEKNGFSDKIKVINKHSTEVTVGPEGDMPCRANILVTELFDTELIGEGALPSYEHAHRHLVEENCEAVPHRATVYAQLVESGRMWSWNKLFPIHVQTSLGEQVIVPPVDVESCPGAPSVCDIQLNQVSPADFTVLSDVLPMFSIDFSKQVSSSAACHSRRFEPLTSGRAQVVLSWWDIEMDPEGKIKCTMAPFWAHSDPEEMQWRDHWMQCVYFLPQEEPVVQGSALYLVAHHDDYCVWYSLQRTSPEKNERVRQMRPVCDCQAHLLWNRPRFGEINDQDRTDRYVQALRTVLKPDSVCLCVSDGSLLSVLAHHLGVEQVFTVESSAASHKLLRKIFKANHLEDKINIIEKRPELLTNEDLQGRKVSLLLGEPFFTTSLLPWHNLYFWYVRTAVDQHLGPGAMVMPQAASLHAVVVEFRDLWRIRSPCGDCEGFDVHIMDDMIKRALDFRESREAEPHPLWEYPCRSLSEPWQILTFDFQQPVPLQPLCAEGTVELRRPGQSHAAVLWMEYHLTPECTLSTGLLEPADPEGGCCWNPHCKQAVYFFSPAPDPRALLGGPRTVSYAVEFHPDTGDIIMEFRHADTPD
# Assay: PRMT panel selectivity test, PRMT7
# Assay type: biochemical
# Method: [The procedure below names another target; the source says it served here with some conditions changed.] PRMT1 enzyme activity test were performed in a buffer prepared on the same day 5 consisting of 10 mMTirs-HCl (pH=8.0), 0.01% Tween-20 and 1 mM DTT. The compounds were prepared to the highest inhibitor concentration ultimately required in the 100× reaction with 100% DMSO and then transferred to one well of a 384-well Echo plate (Echo-eligible 384-well polypropylene microplates 2.0, transparent, flat-bottomed) and sequentially diluted in the next well with a 3-fold dilution of 100% DMSO, and so on, with a total of 10 concentrations based on Precision. 100% DMSO was added to two empty wells to serve as control well without compound and control well without enzyme in the same 384-well Echo plate. 250 nL of compound was transferred from each well of the 384-well Echo plate to a 384-well assay plate (384-well polypropylene storage microplate) via the Echo 550 liquid processor. For wells with compounds and control well without compound, a mixture (15 uL) containing PRMT1 enzyme was added to the 384-well assay plate. For control wells without enzyme, the mixture containing the assay buffer (15 uL) was added instead. The compounds were allowed to incubate with PRMT1 for 15 minutes at room temperature, and then a mixture containing ^3H-SAM and peptide (10 uL) was added to start the reaction (final volume=25 uL). […] After 120 min of incubation, the assay was terminated by the addition of non-radiolabeled SAM (5 uL) to a final concentration of 125 uM, which diluted 3H-SAM to a level at which its incorporation into the peptide substrate was no longer detected. […] Plates were read on a microplate counter (MicroBeta2) to measure the amount of ^3H-labeled peptide bound to the surface of the detection plate, measured in counts per minute (cpm).
# The raw data were copied from the Reader and the inhibition values were calculated in Excel by Equation (1), Equation (1): Inh %=(CPMmax−CPMcmpd)/(CPMmax−CPMmin)*100, wherein the Max signal was obtained from the enzyme-substrate interaction and the Min signal was obtained from the substrate. […]
row,IC50 [µM],Compound
1,≥ 10,CNCCN(C)Cc1ccccc1C1CCN(c2ccccc2)CC1 [P023]
2,≥ 10,CNCCN(C)Cc1ncccc1N1CCc2ccccc2CC1 [P118]
3,≥ 10,CCOCC1(COCC)CCC(c2cccnc2CN(C)CCNC)CC1 [P207]
